According to patent US8563505B2, “Hepatitis C virus inhibitors” (priority 2008, dated 2013):

Tests used:
[1] = biological target: T1, HCV NS3/4A protease complex (Hepatitis C virus genotype 1a, UniProt P27958, C1454S/C1711G); experiment: FRET peptide assay to monitor HCV NS3/4A proteolytic activity; format: biochemical; conditions: class symbols; NS3/4A strain not stated
T1 construct: DNA encoding the recombinant HCV NS3/4A protease complex (amino acids 1027 to 1711) for these strains; inferred from pET21b vector and Ni-NTA purification) (C); made in house; host or cells: Escherichia coli BL21 (DE3), pET21b
T1 sequence (P27958 1027-1711 C1454S/C1711G, one chain of several): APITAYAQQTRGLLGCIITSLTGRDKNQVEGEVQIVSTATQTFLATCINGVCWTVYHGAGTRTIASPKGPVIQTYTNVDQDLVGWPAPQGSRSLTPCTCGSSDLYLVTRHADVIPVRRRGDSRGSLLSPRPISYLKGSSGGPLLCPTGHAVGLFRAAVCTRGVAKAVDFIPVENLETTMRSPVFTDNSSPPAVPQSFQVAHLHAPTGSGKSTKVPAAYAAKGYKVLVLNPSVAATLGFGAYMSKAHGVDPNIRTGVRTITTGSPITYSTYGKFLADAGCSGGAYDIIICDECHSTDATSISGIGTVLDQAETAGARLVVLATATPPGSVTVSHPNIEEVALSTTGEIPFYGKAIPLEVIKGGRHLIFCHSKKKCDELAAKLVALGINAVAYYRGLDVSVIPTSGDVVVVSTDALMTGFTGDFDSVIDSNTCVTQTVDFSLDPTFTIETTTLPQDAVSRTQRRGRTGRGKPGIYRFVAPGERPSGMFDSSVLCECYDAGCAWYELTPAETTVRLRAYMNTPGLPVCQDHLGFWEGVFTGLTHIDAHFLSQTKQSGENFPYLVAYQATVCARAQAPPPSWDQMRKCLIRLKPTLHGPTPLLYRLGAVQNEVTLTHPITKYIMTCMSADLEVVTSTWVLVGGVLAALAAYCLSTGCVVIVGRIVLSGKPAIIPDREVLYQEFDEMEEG
Source text: HCV NS3 protease complexes, derived from the BMS strain, H77 strain or J4L6S strain, were generated, as described below. These purified recombinant proteins were generated for use in a homogeneous assay (see below) to provide an indication of how effective compounds of the present disclosure would be in inhibiting HCV NS3 proteolytic activity.
The H77 and J4L6S strains were used for production of recombinant NS3/4A protease complexes. DNA encoding the recombinant HCV NS3/4A protease complex (amino acids 1027 to 1711) for these strains was manipulated as described by P. Gallinari et al. (see Gallinari P, Paolini C, Brennan D, Nardi C, Steinkuhler C, De Francesco R. Biochemistry. 38(17):5620-32, (1999)). Briefly, a three-lysine solubilizing tail was added at the 3′-end of the NS4A coding region. The cysteine in the P1 position of the NS4A-NS4B cleavage site (amino acid 1711) was changed to a glycine to avoid the proteolytic cleavage of the lysine tag. Furthermore, a cysteine to serine mutation was introduced by PCR at amino acid position 1454 to prevent the autolytic cleavage in the NS3 helicase domain. The variant DNA fragment was cloned in the pET21b bacterial expression vector (Novagen) and the NS3/4A complex was expressed in Escherichia coli strain BL21 (DE3) (Invitrogen) following the protocol described by P. Gallinari et al. (see Gallinari P, Brennan D, Nardi C, Brunetti M, Tomei L, Steinkuhler C, De Francesco R., J Virol. 72(8):6758-69 (1998)) with modifications. Briefly, the NS3/4A protease complex expression was induced with 0.5 millimolar (mM) Isopropyl β-D-1-thiogalactopyranoside (IPTG) for 22 hours (h) at 20° C. A typical fermentation (1 Liter (L)) yielded approximately 10 grams (g) of wet cell paste. The cells were resuspended in lysis buffer (10 mL/g) consisting of 25 mM N-(2-Hydroxyethyl)Piperazine-N′-(2-Ethane Sulfonic acid) (HEPES), pH 7.5, 20% glycerol, 500 mM Sodium Chloride (NaCl), 0.5% Triton X-100, 1 microgram/milliliter ([…]) lysozyme, 5 mM Magnesium Chloride (MgCl2), 1 μg/ml DnaseI, 5 mM […] (βME), Protease inhibitor-Ethylenediamine Tetraacetic acid (EDTA) free (Roche), homogenized and incubated for 20 minutes (min) at 4° C. The homogenate was sonicated and clarified by ultra-centrifugation at 235000 g for 1 hour (h) at 4° C. Imidazole was added to the supernatant to a final concentration of 15 mM and the pH adjusted to 8.0. The crude protein extract was loaded on a Nickel-Nitrilotriacetic acid (Ni-NTA) column pre-equilibrated with buffer B (25 mM HEPES, pH 8.0, 20% glycerol, 500 mM NaCl, 0.5% Triton X-100, 15 mM imidazole, 5 mM βME). The sample was loaded at a flow rate of 1 mL/min. The column was washed with 15 column volumes of buffer C (same as buffer B except with 0.2% Triton X-100). The protein was eluted with 5 column volumes of buffer D (same as buffer C except with 200 mM Imidazole).
NS3/4A protease complex-containing fractions were pooled and loaded on a desalting column Superdex-S200 pre-equilibrated with buffer D (25 mM HEPES, pH 7.5, 20% glycerol, 300 mM NaCl, 0.2% Triton X-100, 10 mM (βME). Sample was loaded at a flow rate of 1 mL/min. NS3/4A protease complex-containing fractions were pooled and concentrated to approximately 0.5 mg/ml. The purity of the NS3/4A protease complexes, derived from the BMS, H77 and J4L6S strains, were judged to be greater than 90% by SDS-PAGE and mass spectrometry analyses. The enzyme was stored at −80° C., thawed on ice and diluted prior to use in assay buffer.
The purpose of this in vitro assay was to measure the inhibition of HCV NS3 protease complexes, derived from the BMS strain, H77 strain or J4L6S strain, as described above, by compounds of the present disclosure. This assay provides an indication of how effective compounds of the present disclosure would be in inhibiting HCV NS3 proteolytic activity.
In order to monitor HCV NS3/4A protease activity, an NS3/4A peptide substrate was used. […]

[2] = test system: HCV replicon in HUH-7 cells; experiment: HCV replicon assay (FRET, confirmed by luciferase reporter); format: cell-based, Hepatitis C virus (strain 1b); conditions: Hepatitis C virus, 96 h; class symbols; HUH-7 replicon cells, 4 days
Source text: An HCV replicon whole cell system was established as described by Lohmann V, Korner F, Koch J, Herian U, Theilmann L, Bartenschlager R., Science 285(5424):110-3 (1999). This system enabled us to evaluate the effects of our HCV Protease compounds on HCV RNA replication. Briefly, using the HCV strain 1b sequence described in the Lohmann paper (Assession number: AJ238799), an HCV cDNA was synthesized by Operon Technologies, Inc. (Alameda, Calif.), and the full-length replicon was then assembled in plasmid pGem9zf(+) (Promega, Madison, Wis.) using standard molecular biology techniques. The replicon consists of (i) the HCV 5′ UTR fused to the first 12 amino acids of the capsid protein, (ii) the neomycin phosphotransferase gene (neo), (iii) the IRES from encephalomyocarditis virus (EMCV), and (iv) HCV NS3 to NS5B genes and the HCV 3′ UTR. Plasmid DNAs were linearized with Seal and RNA transcripts were synthesized in vitro using the T7 MegaScript transcription kit (Ambion, Austin, Tex.) according to manufacturer's directions. In vitro transcripts of the cDNA were transfected into the human hepatoma cell line, HUH-7. […] Resulting cell lines were characterized for positive and negative strand RNA production and protein production over time.
The HCV replicon FRET assay was developed to monitor the inhibitory effects of compounds described in the disclosure on HCV viral replication. HUH-7 cells, constitutively expressing the HCV replicon, were grown in Dulbecco's Modified Eagle Media (DMEM) (Gibco-BRL) containing 10% Fetal calf serum (FCS) (Sigma) and 1 mg/ml G418 (Gibco-BRL). Cells were seeded the night before (1.5×10^4 cells/well) in 96-well tissue-culture sterile plates. Compound and no compound controls were prepared in DMEM containing 4% FCS, 1:100 Penicillin/Streptomysin (Gibco-BRL), 1:100 L-glutamine and 5% DMSO in the dilution plate (0.5% DMSO final concentration in the assay). Compound/DMSO mixes were added to the cells and incubated for 4 days at 37° C. After 4 days, cells were first assessed for cytotoxicity using alamar Blue (Trek Diagnostic Systems) for a CC50 reading. The toxicity of compound (CC50) was determined by adding 1/10th volume of alamar Blue to the media incubating the cells. After 4 h, the fluorescence signal from each well was read, with an excitation wavelength at 530 nm and an emission wavelength of 580 nm, using the Cytofluor Series 4000 (Perspective Biosystems). Plates were then rinsed thoroughly with Phosphate-Buffered Saline (PBS) (3 times 150 μl).
As a secondary assay, EC50 determinations from the replicon FRET assay were confirmed in a replicon luciferase reporter assay. Utilization of a replicon luciferase reporter assay was first described by Krieger et al (Krieger N, Lohmann V, and Bartenschlager R, J. Viral. 75(10):4614-4624 (2001)). The replicon construct described for our FRET assay was modified by inserting cDNA encoding a humanized form of the Renilla luciferase gene and a linker sequence fused directly to the 3′-end of the luciferase gene. This insert was introduced into the replicon construct using an Asc1 restriction site located in core, directly upstream of the neomycin marker gene. The adaptive mutation at position 1179 (serine to isoleucine) was also introduced (Blight K J, Kolykhalov, A A, Rice, C M, Science 290(5498):1972-1974). A stable cell line constitutively expressing this HCV replicon construct was generated as described above. The luciferase reporter assay was set up as described for the HCV replicon FRET assay with the following modifications. Following 4 days in a 37° C./5% CO2 incubator, cells were analyzed for Renilla Luciferase activity using the Promega Dual-Glo Luciferase Assay System. Media (100 μl) was removed from each well containing cells. To the remaining 50 μl of media, 50 μl of Dual-Glo Luciferase Reagent was added, and plates rocked for 10 min to 2 h at room temperature. […]

Row | Compound | IC50 [1] [nM] | EC50 [2] [nM]
1 | C=C[C@@H]1C[C@]1(NC(=O)[C@@H]1C[C@]2(OC)CN1C(=O)[C@H](C(C)(C)C)NC(=O)OCCC(C)(C)CCCc1cc(OC)ccc1-c1ccc2cc1)C(=O)NS(=O)(=O)C1CC1 [Example 10] | 1 to 3 | 5.5 to 10
2 | COc1ccc2c(c1)CCCC(C)(C)CCOC(=O)N[C@@H](C(C)(C)C)C(=O)N1C[C@@](OC)(C[C@H]1C(=O)N[C@]1(C(=O)NS(=O)(=O)C3CC3)C[C@H]1C1CC1)c1ccc-2cc1 [Example 11] | 1 to 3 | 5.5 to 10
3 | C=C[C@@H]1C[C@]1(NC(=O)[C@@H]1C[C@]2(OC)CN1C(=O)[C@H](C(C)(C)C)NC(=O)OCC(C)(C)CCCCc1cc(OC)ccc1-c1ccc2cc1)C(=O)NS(=O)(=O)C1CC1 [Example 12] | 1 to 3 | 5.5 to 10
